In patent US8058242B2, “Chimeric proteins with natriuretic activity” (The University of Queensland, priority 2004, dated 2011):
“And” between values parts separate entries of the source, which are not always exact repeats. Identical values can stand only once. Positions of bridges follow the written chain, without caps; N, C: chain ends. Non-standard residues stand in square brackets, D forms with d. Residues, ends and D or L forms follow the SMILES beside them. No end group written: not given here. Cha = N[C@@H](CC1CCCCC1)C(=O)O; Sec = N[C@@H](C[SeH])C(=O)O

Columns and labels:
[1] = biological target: T1, Natriuretic Peptide Receptor-A (NPR-A) signaling in MDCK cells (Canis lupus familiaris, UniProt A0A8I3MHU3); type: cell-based, canine; conditions: stimulation of cGMP accumulation in MDCK cells; for EC50: read-out: EC50 (M) ± Standard Error
T1 sequence (A0A8I3MHU3 32-1060): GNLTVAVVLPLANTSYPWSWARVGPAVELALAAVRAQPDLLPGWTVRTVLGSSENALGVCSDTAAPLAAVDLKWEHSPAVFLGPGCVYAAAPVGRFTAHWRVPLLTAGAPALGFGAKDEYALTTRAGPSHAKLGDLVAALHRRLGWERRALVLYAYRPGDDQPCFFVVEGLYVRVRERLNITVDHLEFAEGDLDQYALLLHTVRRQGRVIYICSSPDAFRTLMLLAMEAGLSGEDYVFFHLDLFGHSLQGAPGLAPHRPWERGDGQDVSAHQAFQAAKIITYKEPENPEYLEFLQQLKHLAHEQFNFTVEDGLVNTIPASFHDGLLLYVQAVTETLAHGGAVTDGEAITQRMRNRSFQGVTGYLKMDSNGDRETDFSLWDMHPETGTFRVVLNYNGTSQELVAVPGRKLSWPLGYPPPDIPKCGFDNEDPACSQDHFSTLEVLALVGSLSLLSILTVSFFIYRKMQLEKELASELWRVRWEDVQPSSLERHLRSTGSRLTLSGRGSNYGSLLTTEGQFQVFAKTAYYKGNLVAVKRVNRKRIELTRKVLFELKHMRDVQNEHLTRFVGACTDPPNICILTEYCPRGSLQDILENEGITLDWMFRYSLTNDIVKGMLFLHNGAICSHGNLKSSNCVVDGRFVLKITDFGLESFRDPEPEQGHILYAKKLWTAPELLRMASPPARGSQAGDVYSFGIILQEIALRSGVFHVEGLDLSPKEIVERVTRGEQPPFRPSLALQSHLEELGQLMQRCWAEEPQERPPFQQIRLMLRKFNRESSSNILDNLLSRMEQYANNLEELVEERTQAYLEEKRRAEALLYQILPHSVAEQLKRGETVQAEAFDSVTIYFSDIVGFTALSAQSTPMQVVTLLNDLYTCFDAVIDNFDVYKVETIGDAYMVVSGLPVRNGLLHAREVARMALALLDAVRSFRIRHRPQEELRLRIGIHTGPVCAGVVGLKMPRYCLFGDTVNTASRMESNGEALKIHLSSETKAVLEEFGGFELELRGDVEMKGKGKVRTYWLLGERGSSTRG

[2] = tested on: conscious rabbits; test: Blood pressure and heart rate in conscious rabbits, intravenous infusion dose-response (Example 8); conditions: for recovery of MAP, in words: 2 hours after infusion
[3] = tested on: denuded aortic rings, GC A receptor; test: Relaxation of noradrenaline constricted endothelium-denuded aortic rings (Example 11); set-up: species or system rat; conditions: GC-A mediated
Description: Male Sprague Dawley rats were killed and the descending thoracic aorta rapidly removed and flushed with physiological solution. After being cleared of adhering fat and connective tissue, 5 mm rings were mounted under 10 g resting tension, between two stainless steel hooks, in organ baths (37° C.) containing carbogenated (95% O2 and 5% CO2) physiological salt solution of the following composition (mM): NaCl, 118.4; NaHCO3, 25; glucose, 11; KCl, 4.7; MgSO4, 1.2; KH2PO4, 1.2 and CaCl2, 2.5. The lower hook was attached to a tissue holder and the upper hook to a force displacement transducer (Grass FTO3). Where indicated endothelial cells were removed by gentle rubbing of the intimal surface with a wire. To confirm the presence or absence of endothelial cells, tissues were precontracted with a sub-maximal concentration of phenylephrine (0.3 μM) and the response to acetylcholine (ACh, 10 μM) observed. Ach-induced relaxation greater than 80% of maximum indicated the presence of endothelium; whereas Ach-induced relaxation less than 10% indicated the absence of endothelium. Ring preparations under resting tension were conditioned by two contraction/relaxation cycles with 40 mM KCl, contracted by a third application of 40 mM KCl and then relaxed with different doses of the venom peptides. Responses were expressed as a percentage relaxation of the precontraction by KCl.
In addition to the peptides tested in example 3, a series of 13 analogs corresponding to the 2a, 2b and 2c grouping of peptides were examined for their ability to dilate noradrenaline constricted aortic rings. The degree of constriction was expressed as a percentage of the KCl induced constriction. The aortic rings were prepared in a manner similar to the method described in example 3. […]. In each case there were at least 3 separate aortic rings tested per peptide and all were denuded of endothelium to ensure responses were confined to the GC A receptor.

[4] = after a 2 hour recovery period, Table 10B
[5] = final dose, Table 10B, groups 2B and 2C
[6] = after 1 hour recovery period, Table 10A

Row | Compound | −Log10 EC50 (pEC50) ± Standard Error [1] | EC50 [1] [M] | recovery of MAP, in words [2] | MAP at final dose ([2]; Table 10B) [mm Hg] | Recovery (MAP) [2, 4] [mm Hg] | Recovery Delta SED (MAP) [2, 4] [mm Hg] | Treatment Effect, change of mean blood pressure during the infusion [2, 5] [mm Hg] | Mean relaxation SEM of denuded aortic rings expressed as % of KCl response [3] | Recovery (MAP) [2, 6] [mm Hg] | Recovery Delta SED (MAP) [2, 6] [mm Hg] | MAP at final dose ([2]; highest dose, Table 10A) [mm Hg] | Treatment Effect, change of mean blood pressure during the infusion ([2]; highest dose, Table 10A, groups 1, 2A and 3) [mm Hg] | recovery of MAP from the hypotension, in words ([2]; one hour after the end of infusion)
1 | CC[C@H](C)[C@H](NC(=O)[C@H](CCCCN)NC(=O)[C@H](CO)NC(=O)[C@H](CC(=O)O)NC(=O)[C@@H](N)CO)C(=O)NCC(=O)N[C@@H](CC(N)=O)C(=O)NCC(=O)N[C@H]1CSSC[C@@H](C(=O)N[C@@H](CC(N)=O)C(=O)N[C@@H](CCCNC(=N)N)C(=O)N[C@H](C(=O)N[C@@H](CCSC)C(=O)N[C@@H](CCC(N)=O)C(=O)N[C@@H](CC(N)=O)C(=O)N2CCC[C@H]2C(=O)N2CCC[C@H]2C(=O)N[C@@H](CCCCN)C(=O)N[C@@H](CCCCN)C(=O)N[C@@H](Cc2ccccc2)C(=O)N[C@@H](CO)C(=O)NCC(=O)N[C@@H](CCC(=O)O)C(=O)O)[C@@H](C)CC)NC(=O)CNC(=O)[C@H](CC(C)C)NC(=O)CNC(=O)[C@H](CO)NC(=O)[C@H](C(C)C)NC(=O)[C@H](CO)NC(=O)CNC(=O)[C@H]([C@@H](C)CC)NC(=O)[C@H](CCCNC(=N)N)NC(=O)[C@H](CC(=O)O)NC(=O)[C@H](CC(C)C)NC(=O)[C@@H]2CCCN2C(=O)[C@H](Cc2ccccc2)NC(=O)CNC(=O)[C@H](CC2CCCCC2)NC1=O [TNPc Cha-10] (H-SDSKIGNGC[Cha]GFPLDRIGSVSGLGCNRIMQNPPKKFSGE-OH; disulfide 9-25; N-terminus assumed) | 7.84 | 1.44e-08 | partially recovered | 67.3 | 76.5 | 9.1 ± 3.9 | −10.8 | 64.2 ± 4.2% |  |  |  |  | 
2 | CC[C@H](C)[C@@H]1NC(=O)[C@H](CCCNC(=N)N)NC(=O)[C@H](CC(=O)O)NC(=O)[C@H](CC(C)C)NC(=O)[C@@H]2CCCN2C(=O)[C@H](Cc2ccccc2)NC(=O)CNC(=O)[C@H](Cc2ccccc2)NC(=O)[C@@H](NC(=O)[C@@H]2CCCN2C(=O)[C@H](CC(=O)O)NC(=O)[C@H](Cc2ccc(O)cc2)NC(=O)[C@H](CCCCN)NC(=O)[C@@H](NC(=O)[C@@H](N)CCC(=O)O)C(C)C)CSSC[C@@H](C(=O)N[C@@H](CC(N)=O)C(=O)N[C@@H](CCCNC(=N)N)C(=O)N[C@H](C(=O)N[C@@H](CCSC)C(=O)N[C@@H](CCC(N)=O)C(=O)N[C@@H](CC(N)=O)C(=O)N2CCC[C@H]2C(=O)N2CCC[C@H]2C(=O)N[C@@H](CCCCN)C(=O)N[C@@H](CCCCN)C(=O)N[C@@H](Cc2ccccc2)C(=O)N[C@@H](CO)C(=O)NCC(=O)N[C@@H](CCC(=O)O)C(=O)O)[C@@H](C)CC)NC(=O)CNC(=O)[C@H](CC(C)C)NC(=O)CNC(=O)[C@H](CO)NC(=O)[C@H](C(C)C)NC(=O)[C@H](CO)NC(=O)CNC1=O [TNPc DTT] (H-EVKYDPCFGFPLDRIGSVSGLGCNRIMQNPPKKFSGE-OH; disulfide 7-23; N-terminus assumed) | 7.723 ± 0.1425 | 2.12e-08 | partially recovered | 58.6 | 70.3 | 11.7 ± 5.2 | −12.4 | 58.9 ± 6.7% |  |  |  |  | 
3 | CC[C@H](C)[C@H](NC(=O)[C@H](CCCCN)NC(=O)[C@H](CO)NC(=O)[C@H](CC(=O)O)NC(=O)[C@@H](N)CO)C(=O)NCC(=O)N[C@@H](CCCCN)C(=O)NCC(=O)N[C@H]1CSSC[C@@H](C(=O)N[C@@H](CC(N)=O)C(=O)N[C@@H](CCCNC(=N)N)C(=O)N[C@H](C(=O)N[C@@H](CCSC)C(=O)N[C@@H](CCC(N)=O)C(=O)N[C@@H](CC(N)=O)C(=O)N2CCC[C@H]2C(=O)N2CCC[C@H]2C(=O)N[C@@H](CCCCN)C(=O)N[C@@H](CCCCN)C(=O)N[C@@H](Cc2ccccc2)C(=O)N[C@@H](CO)C(=O)NCC(=O)N[C@@H](CCC(=O)O)C(=O)O)[C@@H](C)CC)NC(=O)CNC(=O)[C@H](CC(C)C)NC(=O)CNC(=O)[C@H](CO)NC(=O)[C@H](C(C)C)NC(=O)[C@H](CO)NC(=O)CNC(=O)[C@H]([C@@H](C)CC)NC(=O)[C@H](CCCNC(=N)N)NC(=O)[C@H](CC(=O)O)NC(=O)[C@H](CC(C)C)NC(=O)[C@@H]2CCCN2C(=O)[C@H](Cc2ccccc2)NC(=O)CNC(=O)[C@H](Cc2ccccc2)NC1=O [TNPc K7] (H-SDSKIGKGCFGFPLDRIGSVSGLGCNRIMQNPPKKFSGE-OH; disulfide 9-25; N-terminus assumed) | 7.443 ± 0.2700 | 5.28e-08 | did not recover after 2 hours | 59.0 | 62.4 | 3.4 ± 1.9 | −14.1 | 50% and 46.1 ± 13.5% |  |  |  |  | 
4 | SDSKISKGCFGFPLDRIGSVSGLGCNRIMQNPPKKFSGE (A portion of a natriuretic peptide) [TNPc K7S6] |  |  | did not recover after 2 hours | 60.3 | 64.2 | 3.9 ± 2.6 | −12.6 | 43.8 ± 4.3% |  |  |  |  | 
5 | SDSKIGNGCFGFPLDRIGSVSGLGCNRIMQNRPKKFSGE (A portion of a natriuretic peptide) [TNPc P32R] |  |  |  |  |  |  |  | 66.4 ± 8.8% | 57.6 | 0.1 ± 1.4 | 57.5 | −19.9 | did recover from the hypotension
6 | SDSKIGNGUFGFPLDRIGSVSGLGUNRIMQNPPKKFSGE (SDSKIGNG[Sec]FGFPLDRIGSVSGLG[Sec]NRIMQNPPKKFSGE; ends and bridges not checked) [TNPc diseleno] |  |  | did not recover after 2 hours | 61.0 | 65.8 | 4.8 ± 0.3 | −12.6 | 60.5 ± 9.6% |  |  |  |  | 
